Assay [1] addresses T1, PDGFRα kinase (Homo sapiens, UniProt P16234).
T1 construct: purchased SignalChem
Briefly: PDGFRα kinase assay (AlphaScreen). The format is biochemical. To be noted: read-out: Ranking of IC50 values, PDGFRα. Put shortly:
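Recombinant PDGFRα (1.5 ng) phosphorylated biotinylated poly(Glu4:Tyr1) with 10 μM ATP in MOPS pH 7.0 with 10 mM MgCl2, 30 min at 30 °C, stopped with EDTA. Product detected by AlphaScreen; IC50 from serial dilutions run in duplicate.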
Background: In Alpha technology, singlet oxygen from a donor bead excites a nearby acceptor bead.

Assay [2] has as its system phosphorylation of FLT3 and its down-stream effector STAT5. Kind of assay: Western blotting of p-FLT3 and p-STAT5 in MV4-11 cells. The assay is classed as cell-based. As to conditions: Homo sapiens; at 30 nM treatment, 3 hours, FLT3-ITD positive MV4-11 leukemia cells; read-out: inhibition activity against phosphorylation of FLT3 and its down-stream effector STAT5. Summed up: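 MV4-11 cells held overnight in IMDM with 0.1% FBS, then 3 million cells treated with compound for 3 h. Whole lysates immunoblotted for p-FLT3 (Tyr-591), p-STAT5 (Tyr-694) and actin. Band intensities at 30 nM compared to DMSO control; % inhibition = (1 − relative intensity) × 100.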
In general terms: Immunoblotting shows a protein as a band on a membrane.

Assay [3] has as its target T2, FLT3-D835Y mutant kinase (Homo sapiens, UniProt P36888, D835Y).
T2 construct: purchased SignalChem
T2 sequence (P36888 27-993 D835Y): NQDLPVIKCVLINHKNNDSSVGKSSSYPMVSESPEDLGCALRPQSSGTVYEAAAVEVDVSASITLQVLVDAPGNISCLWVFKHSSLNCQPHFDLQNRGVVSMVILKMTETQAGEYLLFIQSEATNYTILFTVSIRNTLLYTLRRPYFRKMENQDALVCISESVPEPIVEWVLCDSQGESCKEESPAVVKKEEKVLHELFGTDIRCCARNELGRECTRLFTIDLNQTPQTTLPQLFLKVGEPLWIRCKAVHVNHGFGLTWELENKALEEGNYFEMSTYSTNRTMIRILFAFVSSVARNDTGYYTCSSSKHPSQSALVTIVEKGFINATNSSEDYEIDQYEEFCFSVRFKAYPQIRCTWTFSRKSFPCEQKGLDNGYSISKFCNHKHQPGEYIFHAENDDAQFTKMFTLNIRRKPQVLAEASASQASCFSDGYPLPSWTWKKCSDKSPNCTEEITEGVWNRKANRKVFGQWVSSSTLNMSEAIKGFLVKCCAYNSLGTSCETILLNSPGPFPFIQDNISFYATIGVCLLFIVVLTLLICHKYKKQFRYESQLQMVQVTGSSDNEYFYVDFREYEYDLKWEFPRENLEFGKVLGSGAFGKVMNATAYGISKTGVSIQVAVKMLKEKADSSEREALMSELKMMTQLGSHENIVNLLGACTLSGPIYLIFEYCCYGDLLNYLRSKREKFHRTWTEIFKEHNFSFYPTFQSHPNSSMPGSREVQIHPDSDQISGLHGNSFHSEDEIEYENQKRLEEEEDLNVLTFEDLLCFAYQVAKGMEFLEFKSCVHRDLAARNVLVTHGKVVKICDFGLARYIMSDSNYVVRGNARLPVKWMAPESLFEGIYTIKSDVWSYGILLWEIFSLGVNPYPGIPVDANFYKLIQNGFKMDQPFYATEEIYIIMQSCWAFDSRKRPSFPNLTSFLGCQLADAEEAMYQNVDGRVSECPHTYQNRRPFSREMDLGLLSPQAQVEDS
Briefly: FLT3-D835Y mutant kinase assay (AlphaScreen). The format is biochemical. To be noted: read-out: Ranking of IC50 values, FLT3-D835Y. Summed up:
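Recombinant FLT3-D835Y (1 ng) phosphorylated biotin-poly(Glu4:Tyr1) at 10 μM ATP, pH 7.0 MOPS buffer with 10 mM MgCl2, for 30 min at 30 °C, stopped with EDTA. Product was read by AlphaScreen. IC50 came from serial dilutions run in duplicate.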

The values below come from patent US12448394B2, “Heterocyclic pyrazole derivatives as type III receptor tyrosine kinase inhibitors” (DEVELOPMENT CENTER FOR BIOTECHNOLOGY, priority 2019, dated 2025).

The structures appear in SMILES notation.

One may read the IC50 as the concentration at which inhibition is half-maximal. As a reminder, the inhibition is the share of the control response that was lost under treatment.

T1 sequence (P16234 24-1089): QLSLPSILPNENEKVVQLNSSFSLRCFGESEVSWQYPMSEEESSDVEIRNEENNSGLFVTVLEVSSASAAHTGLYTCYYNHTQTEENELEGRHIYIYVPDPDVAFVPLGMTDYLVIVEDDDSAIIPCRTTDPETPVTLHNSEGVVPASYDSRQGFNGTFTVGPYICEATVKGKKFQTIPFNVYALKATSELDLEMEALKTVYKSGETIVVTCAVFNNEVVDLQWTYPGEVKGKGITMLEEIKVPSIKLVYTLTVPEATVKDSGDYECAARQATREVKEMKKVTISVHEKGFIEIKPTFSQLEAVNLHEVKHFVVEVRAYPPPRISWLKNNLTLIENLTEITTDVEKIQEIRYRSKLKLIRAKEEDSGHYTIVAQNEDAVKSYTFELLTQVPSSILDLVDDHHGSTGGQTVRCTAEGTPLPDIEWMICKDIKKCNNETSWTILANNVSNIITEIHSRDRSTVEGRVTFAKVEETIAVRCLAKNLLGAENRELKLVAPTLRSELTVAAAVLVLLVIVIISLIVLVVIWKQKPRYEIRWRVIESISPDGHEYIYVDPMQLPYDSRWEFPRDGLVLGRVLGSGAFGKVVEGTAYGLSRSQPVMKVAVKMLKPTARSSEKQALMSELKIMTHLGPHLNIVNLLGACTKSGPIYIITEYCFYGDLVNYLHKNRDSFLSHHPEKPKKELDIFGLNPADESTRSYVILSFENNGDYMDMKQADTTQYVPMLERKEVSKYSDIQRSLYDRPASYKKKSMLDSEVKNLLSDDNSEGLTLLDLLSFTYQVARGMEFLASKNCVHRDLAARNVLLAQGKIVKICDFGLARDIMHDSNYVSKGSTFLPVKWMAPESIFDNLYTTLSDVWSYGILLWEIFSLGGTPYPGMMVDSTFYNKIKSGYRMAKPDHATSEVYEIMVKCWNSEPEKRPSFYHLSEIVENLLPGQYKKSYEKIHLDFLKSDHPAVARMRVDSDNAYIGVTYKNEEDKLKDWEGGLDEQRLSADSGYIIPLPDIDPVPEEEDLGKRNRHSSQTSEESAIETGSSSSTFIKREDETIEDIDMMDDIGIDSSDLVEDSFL

As to `COc1ccc(-c2cc3c(s2)Cc2c(-c4ccc5[nH]ncc5c4)n[nH]c2-3)cn1` [Compound 1, 3-(1H-indazol-5-yl)-6-(6-methoxypyridin-3-yl)-1,4-dihydrothieno[2′,3′:4,5] cyclopenta[1,2-c]pyrazole], the IC50 in assay [1] was in the range of 10 to 30 nM. The inhibition at 0.03 µM in assay [2] was greater than 50%.

`COc1ccc(-c2cc3c(s2)Cc2c(-c4ccc5cn[nH]c5c4)n[nH]c2-3)cn1` [Compound 2, 3-(1H-indazol-6-yl)-6-(6-methoxypyridin-3-yl)-1,4-dihydrothieno[2′,3′:4,5] cyclopenta[1,2-c]pyrazole]: the IC50 in assay [1] fell in the range of 10 to 30 nM. Also, the inhibition at 0.03 µM in assay [2] was greater than 50%.

With `Nc1ccc(-c2cc3c(s2)Cc2c(-c4ccc5cn[nH]c5c4)n[nH]c2-3)cn1` [Compound 3, 5-(3-(1H-indazol-6-yl)-1,4-dihydrothieno[2′,3′:4,5]cyclopenta[1,2-c]pyrazol-6-yl)pyridin-2-amine], the IC50 in assay [1] was 1 to 10 nM. In addition, in assay [2], the inhibition at 0.03 µM is greater than 50%.

As to `COc1ccc(-c2cc3c(s2)Cc2c(-c4ccc5cnn(C)c5c4)n[nH]c2-3)cn1` [Compound 4, 6-(6-methoxypyridin-3-yl)-3-(1-methyl-1H-indazol-6-yl)-1,4-dihydrothieno [2′,3′:4,5]cyclopenta[1,2-c] pyrazole], the IC50 in assay [3] is less than 1 nM; in assay [1], 10 to 30 nM.

As for `Cc1ccc(-c2cc3c(s2)Cc2c(-c4ccc5cn[nH]c5c4)n[nH]c2-3)cn1` [Compound 30, 3-(1H-indazol-6-yl)-6-(6-methylpyridin-3-yl)-1,4-dihydrothieno[2′,3′:4,5] cyclopenta[1,2-c]pyrazole], in assay [1], the half-inhibitory concentration (IC50) lay within 1 to 10 nM. Besides, the inhibition at 0.03 µM in assay [2] is greater than 50%.

With `Cc1ccc(-c2cc3c(s2)Cc2c(-c4ccc5[nH]ncc5c4)n[nH]c2-3)cn1` [Compound 36, 3-(1H-indazol-5-yl)-6-(6-methylpyridin-3-yl)-1,4-dihydrothieno[2′,3′:4,5] cyclopenta[1,2-c]pyrazole], in assay [1], the IC50 was in the range of 1 to 10 nM. For the same molecule, the inhibition at 0.03 µM in assay [2] is greater than 50%.

As for `Nc1ccc(-c2cc3c(s2)Cc2c(-c4ccc5[nH]ncc5c4)n[nH]c2-3)cn1` [Compound 40, 5-(3-(1H-indazol-5-yl)-1,4-dihydrothieno [2′,3′:4,5]cyclopenta [1,2-c]pyrazol-6-yl) pyridin-2-amine], the concentration for half-maximal inhibition (IC50) in assay [1] is 1 to 10 nM. The inhibition at 0.03 µM in assay [2] is greater than 50%.

In the case of `Cn1ncc2ccc(-c3n[nH]c4c3Cc3sc(-c5ccc(CN6CCOC6=O)cc5)cc3-4)cc21` [Compound 62, 3-(4-(3-(1-methyl-1H-indazol-6-yl)-1,4-dihydro-thieno[2′,3′:4,5]cyclopenta [1,2-c]pyrazol-6-yl)benzyl)oxazolidin-2-one], in assay [1], the IC50 is 10 to 30 nM. Also, the inhibition at 0.03 µM in assay [2] was greater than 50%.

In the case of `Cc1n[nH]c2cc(-c3n[nH]c4c3Cc3sc(-c5ccc(CN6CCOCC6)cc5)cc3-4)ccc12` [Compound 81, 4-(4-(3-(3-methyl-1H-indazol-6-yl)-1,4-dihydro-thieno[2′,3′:4,5]cyclopenta [1,2-c]pyrazol-6-yl)benzyl)morpholine], the IC50 in assay [3] and in assay [1] was 1 to 10 nM throughout.

On to `Cn1ncc2ccc(-c3n[nH]c4c3Cc3sc(-c5ccc(N6CCOCC6)nc5)cc3-4)cc21` [Compound 82, 4-(5-(3-(1-methyl-1H-indazol-6-yl)-1,4-dihydro-thieno[2′,3′:4,5]cyclopenta [1,2-c]pyrazol-6-yl)pyridin-2-yl)morpholine], for which the figures for the IC50 in assay [3] and in assay [1] were 1 to 10 nM and 100 to 300 nM, respectively.

Turning to `CN1CCN(Cc2ccc(-c3cc4c(s3)Cc3c(-c5ccc6cn[nH]c6c5)n[nH]c3-4)cc2)CC1` [Compound 83, 3-(1H-indazol-6-yl)-6-(4-((4-methylpiperazin-1-yl)methyl)phenyl)-1,4-dihydrothieno[2′,3′:4,5] cyclopenta[1,2-c]pyrazole], the IC50 in assay [3] is less than 1 nM; in assay [1], 1 to 10 nM. For the same molecule, the inhibition at 0.03 µM in assay [2] is greater than 50%.

With `CN1CCN(Cc2ccc(-c3cc4c(s3)Cc3c(-c5ccc6cnn(C)c6c5)n[nH]c3-4)cc2)CC1` [Compound 84, 3-(1-methyl-1H-indazol-6-yl)-6-(4-((4-methylpiperazin-1-yl)methyl)phenyl)-1,4-dihydrothieno [2′,3′:4,5]cyclopenta [1,2-c]pyrazole], the IC50 in assay [3] was less than 1 nM; in assay [1], 1 to 10 nM. In assay [2], the inhibition at 0.03 µM is greater than 50%.

As to `CN1CCN(c2ccc(-c3cc4c(s3)Cc3c(-c5ccc6cnn(C)c6c5)n[nH]c3-4)cn2)CC1` [Compound 85, 3-(1-methyl-1H-indazol-6-yl)-6-(6-(4-methyl-piperazin-1-yl)pyridin-3-yl)-1,4-dihydrothieno [2′,3′:4,5]cyclopenta [1,2-c]pyrazole], the figures for the IC50 in assay [3] and in assay [1] were less than 1 nM and 1 to 10 nM, respectively.

As to `Cn1ncc2ccc(-c3n[nH]c4c3Cc3sc(-c5ccnc(Cl)c5)cc3-4)cc21` [Compound 86, 6-(2-chloropyridin-4-yl)-3-(1-methyl-1H-indazol-6-yl)-1,4-dihydrothieno [2′,3′:4,5]cyclopenta [1,2-c]pyrazole], the IC50 was in the range of 1 to 10 nM in assay [3] and 10 to 30 nM in assay [1].

Consider `CN1CCN(c2cc(-c3cc4c(s3)Cc3c(-c5ccc6cnn(C)c6c5)n[nH]c3-4)ccn2)CC1` [Compound 87, 3-(1-methyl-1H-indazol-6-yl)-6-(2-(4-methyl-piperazin-1-yl)pyridin-4-yl)-1,4-dihydrothieno [2′,3′:4,5]cyclopenta [1,2-c]pyrazole], for which the IC50 in assay [3] is less than 1 nM; in assay [1], 1 to 10 nM.

`Cn1ncc2ccc(-c3n[nH]c4c3Cc3sc(-c5ccc(CN6CCOCC6)c(F)c5F)cc3-4)cc21` [Compound 88, 4-(2,3-difluoro-4-(3-(1-methyl-1H-indazol-6-yl)-1,4-dihydrothieno [2′,3′:4,5]cyclopenta [1,2-c]pyrazol-6-yl)benzyl)morpholine]: the IC50 fell in the range of 1 to 10 nM in assay [3] and 30 to 100 nM in assay [1].

For the molecule `Cn1ncc2ccc(-c3n[nH]c4c3Cc3sc(-c5ccc(CN6CCOCC6)cc5OC(F)(F)F)cc3-4)cc21` [Compound 90, 4-(4-(3-(1-methyl-1H-indazol-6-yl)-1,4-dihydro-thieno[2′,3′:4,5]cyclopenta [1,2-c]pyrazol-6-yl)-3-(trifluoromethoxy)benzyl) morpholine], the IC50 is 1 to 10 nM in assay [3] and 100 to 300 nM in assay [1].

Consider `Cc1cc(CN2CCOCC2)ccc1-c1cc2c(s1)Cc1c(-c3ccc4cnn(C)c4c3)n[nH]c1-2` [Compound 91, 4-(3-methyl-4-(3-(1-methyl-1H-indazol-6-yl)-1,4-dihydrothieno [2′,3′:4,5]cyclopenta [1,2-c]pyrazol-6-yl)benzyl)morpholine], for which the figures for the IC50 in assay [3] and in assay [1] were 1 to 10 nM and 30 to 100 nM, respectively.

Regarding `CN(C)Cc1ccc(-c2cc3c(s2)Cc2c(-c4ccc5cnn(C)c5c4)n[nH]c2-3)cn1` [Compound 93, N,N-dimethyl-1-(5-(3-(1-methyl-1H-indazol-6-yl)-1,4-dihydrothieno [2′,3′:4,5]cyclopenta [1,2-c]pyrazol-6-yl)pyridin-2-yl)methanamine], the IC50 in assay [3] was in the range of 1 to 10 nM; in assay [1], 100 to 300 nM.

As for `Cn1ncc2ccc(-c3n[nH]c4c3Cc3sc(-c5ccc(CN6CCNCC6=O)cc5)cc3-4)cc21` [Compound 101, 1-(4-(3-(1-methyl-1H-indazol-6-yl)-1,4-dihydro-thieno[2′,3′:4,5]cyclopenta [1,2-c]pyrazol-6-yl)benzyl)piperazin-2-one], the IC50 in assay [1] was 1 to 10 nM. Also, the inhibition at 0.03 µM in assay [2] was greater than 50%.
